Reference: patent US5620676A, “Biologically active ATP analogs” (priority 1995, dated 1997)
“Also recorded” adds a separate entry of the source. Read-outs that look alike come from different tables or passages of the source.

Columns and labels:
[1] = system: P2X receptors; assay: Overall activity in P2X receptor systems
[2] = system: P2X and P2Y receptors; assay: Overall activity in the seven P2X and P2Y preparations
[3] = target: T1, P2Y receptor (turkey erythrocyte membranes) (Meleagris gallopavo, UniProt P49652); assay: Stimulation of phospholipase C (inositol phosphate formation) in turkey erythrocyte membranes; format: biochemical
T1 construct: from tissue; host or cells: washed turkey erythrocytes, ghosts prepared by hypotonic lysis
T1 sequence (P49652 whole entry): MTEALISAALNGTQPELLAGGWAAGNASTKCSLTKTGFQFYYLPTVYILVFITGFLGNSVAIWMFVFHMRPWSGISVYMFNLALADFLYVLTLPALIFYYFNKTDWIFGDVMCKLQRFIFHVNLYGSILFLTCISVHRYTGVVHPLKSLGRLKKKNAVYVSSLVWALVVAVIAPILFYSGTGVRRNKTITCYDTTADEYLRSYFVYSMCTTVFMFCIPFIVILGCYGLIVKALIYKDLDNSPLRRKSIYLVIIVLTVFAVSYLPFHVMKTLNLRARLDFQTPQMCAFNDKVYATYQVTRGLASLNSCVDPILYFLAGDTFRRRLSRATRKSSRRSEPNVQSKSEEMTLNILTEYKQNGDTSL
How it was run: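 Erythrocytes were labelled 18-24 h at 37 °C with [3H]myoinositol, and ghosts were made by hypotonic lysis. Ghosts (≈175 μg protein) were incubated 5 min at 30 °C in Hepes buffer pH 7.0 with 1 μM GTPγS and nucleotide analogs. Total [3H]inositol phosphates were purified by anion exchange; K0.5 averaged from 3-8 dose-response curves.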

[4] = system: P2Y receptor (aorta endothelium); assay: Relaxation of noradrenalin-contracted rabbit aorta; settings: for activity/potency/selectivity in words, aorta: rabbit aorta endothelial P2Y receptor; for relaxation pD2, aorta: rabbit aorta, log molar units
[5] = target: T2, P2X receptor (urinary bladder) (Cavia porcellus, UniProt A0A286XVA9); assay: Contraction of guinea pig isolated urinary bladder detrussor muscle; settings: guinea pig urinary bladder
T2 construct: guinea pig isolated urinary bladder detrussor muscle; from tissue; host or cells: guinea pig isolated urinary bladder detrusor muscle

[6] = target: T3, P2X receptor (saphenous artery) (Oryctolagus cuniculus, UniProt G1U3D6); assay: Contraction of rabbit saphenous artery; settings: rabbit saphenous artery
T3 construct: and rabbit saphenous artery; from tissue; host or cells: rabbit saphenous artery
T3 sequence (G1U3D6 1-399): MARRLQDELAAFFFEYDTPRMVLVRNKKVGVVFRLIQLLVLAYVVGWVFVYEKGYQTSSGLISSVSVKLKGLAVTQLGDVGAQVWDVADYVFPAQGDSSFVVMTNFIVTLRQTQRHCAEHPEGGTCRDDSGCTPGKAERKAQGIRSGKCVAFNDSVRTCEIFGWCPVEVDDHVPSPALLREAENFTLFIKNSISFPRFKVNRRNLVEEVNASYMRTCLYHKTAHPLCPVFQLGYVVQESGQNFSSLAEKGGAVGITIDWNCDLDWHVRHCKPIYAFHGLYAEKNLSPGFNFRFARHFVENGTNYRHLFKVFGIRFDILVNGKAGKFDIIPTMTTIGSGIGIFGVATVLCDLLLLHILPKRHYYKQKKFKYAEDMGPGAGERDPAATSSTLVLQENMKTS
From the text: (§1) Muscular relaxation/contraction: Relaxant responses mediated via P2Y receptors were examined in guinea pig taenia coli, rabbit aorta, and rabbit mesenteric artery, as described by Hoyle et al. (Br. J. Pharmacol., 107, 367-374 (1992a)), Burnstock et al., (Br. J. Pharmacol., 90, 383-391 (1987a)), and Rubino et al., (Eur. J. Pharmacol., 212, 237-240 (1992)). Contractile responses mediated via P2X receptors were examined in the guinea pig urinary bladder and vas deferens, and rabbit saphenous artery, also using standard methods (see Hoyle et al., supra., 1992; Hoyle et al., Br. J. Pharmacol., 99, 617-621 (1990); and Burnstock et al., Br. J. Pharmacol., 90, 111-120 (1987b)).
^c For the saphenous artery, the percentages in brackets are response
at 10 μM relative to the contraction produced by 1 μM α,MeATP
ATP in this assay is very weak (EC50 =
1.78 mM). The highest concentrations of the analogues tested were 3-30

[7] = target: T4, P2X receptor (vas deferens) (Cavia porcellus, UniProt A0A286XVA9); assay: Contraction of guinea pig isolated vas deferens
T4 sequence (A0A286XVA9 1-399): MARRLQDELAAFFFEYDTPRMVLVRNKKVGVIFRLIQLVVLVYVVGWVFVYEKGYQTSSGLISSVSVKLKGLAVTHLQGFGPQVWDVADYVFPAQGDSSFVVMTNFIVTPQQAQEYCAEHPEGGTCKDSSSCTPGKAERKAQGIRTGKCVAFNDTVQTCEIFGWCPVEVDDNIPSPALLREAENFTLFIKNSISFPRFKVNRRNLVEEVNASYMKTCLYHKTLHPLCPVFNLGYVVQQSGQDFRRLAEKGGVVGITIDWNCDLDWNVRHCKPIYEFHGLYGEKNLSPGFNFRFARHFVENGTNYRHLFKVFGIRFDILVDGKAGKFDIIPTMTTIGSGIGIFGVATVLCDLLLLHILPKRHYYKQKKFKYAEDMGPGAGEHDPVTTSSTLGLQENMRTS
Protocol: In FIG. 14, the x-axis is also marked in units of the negative log of the molar concentration of applied putative P2Y receptor agonists and the y-axis is marked in units of the percentage relaxation of the 1 μM noradrenalin-induced contraction of rabbit aorta endothelium. In FIGS. 15-16, the x-axis is marked in units of the negative log of the molar concentration of applied putative p^2X receptor agonists and the y-axis is marked in units of the percentage contraction relative to a standard dose of KCl (i.e., 60 mM), as assessed in guinea pig isolated urinary bladder detrussor muscle (FIG. 15) and guinea pig isolated vas deferens (FIG. 16).

[8] = target: T5, P2Y receptor (taenia coli) (Cavia porcellus, UniProt P59902); assay: Relaxation of carbachol-contracted guinea pig taenia coli
T5 construct: Relaxant responses mediated via P2Y receptors were examined in guinea pig taenia coli; from tissue; host or cells: guinea pig taenia coli (carbachol-contracted)
T5 sequence (P59902 whole entry): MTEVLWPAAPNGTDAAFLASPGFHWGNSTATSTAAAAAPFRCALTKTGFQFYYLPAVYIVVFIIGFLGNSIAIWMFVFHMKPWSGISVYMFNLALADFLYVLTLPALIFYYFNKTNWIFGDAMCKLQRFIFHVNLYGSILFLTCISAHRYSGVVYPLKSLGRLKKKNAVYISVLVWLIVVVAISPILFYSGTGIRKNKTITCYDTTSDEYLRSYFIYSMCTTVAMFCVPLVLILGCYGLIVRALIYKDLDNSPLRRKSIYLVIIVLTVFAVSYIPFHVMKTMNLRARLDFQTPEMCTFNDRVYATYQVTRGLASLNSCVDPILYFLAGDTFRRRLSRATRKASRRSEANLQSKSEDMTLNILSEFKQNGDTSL
How it was run: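 Guinea pig taenia coli precontracted with 50 nM carbachol; relaxation to applied P2Y agonists expressed as percentage relaxation against negative log molar agonist concentration.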

[9] = system: P2Y receptors; assay: Overall activity in P2Y receptor systems
Protocol: Phospholipase C activity: Stimulation of inositol phosphate formation by compounds of the present invention was measured in turkey erythrocyte membranes as described by Harden et al., supra and Boyer et al., supra. The K0.5 values were averaged from 3-8 independently determined dose-response curves for each compound. Briefly, one ml of washed turkey erythrocytes was incubated in inositol-free medium (DMEM; Gibco) with 0.5-1 mCi of 2-[^3 H]myoinositol (20 Ci/mmol; American Radiolabeled Chemicals Inc., St. Louis, Mo.)for 18-24 h in a humidified atmosphere of 95% air 5% CO2 at 37° C. Erythrocyte ghosts were prepared by rapid lysis in hypotonic buffer (5 mM sodium phosphate, pH 7.4, 5 mM MgCl2, 1 mM EGTA) as described by Boyer et al., supra. Phospholipase C activity was measured in 25 μl of [^3 H]inositol-labeled ghosts (≈175 μg of protein, 200-500,000 cpm/assay) in a medium containing 424 μM CaC12, 0.91 mM MgSO4, 2 mM EGTA, 115 mM KCl, 5 mM KH2 PO4, and 10 mM Hepes, pH 7.0. Assay (100 μl or 200 μl final volume) contained 1 μM GTPγS and the indicated concentrations of nucleotide analogs. Ghosts were incubated at 30° C. for 5 min, and total [^3 H]inositol phosphates were quantitated after purification by anion exchange chromatography according to Harden et al. (supra) and Boyer et al. (supra).
as §1

[10] = system: P2Y receptor (mesenteric artery); assay: Relaxation of rabbit mesenteric artery
[11] = turkey erythrocyte membranes, mean ± S.E.M. for at least 2 determinations, read-out: phosphatidyl inositol metabolism (K0.5, nM) erythrocyte

SMILES: CC1(C)O[C@@H]2[C@H](O1)[C@@H](COP(=O)(O)O)O[C@H]2n1cnc2c(N)ncnc21 [2',3'-Isopropylidene-AMP, 2',3'-Isopropylidene AMP]
- overall activity in words, P2X systems [1]: inactive in the P2X receptor systems
- overall activity in words, all preparations [2]: Neither was particularly active at either P2X or P2Y receptors
- EC50 [3, 11]: > 100000 nM
- activity/potency/selectivity in words, aorta ([4]; listed as 2',3'-isopropylidene-AMP): a potent agonist at the rabbit endothelial P2Y receptor
- activity/potency/selectivity in words, aorta ([4]; listed as Isopropylidene-AMP): specific for the aortic endothelial P2Y receptor

SMILES: CC1(C)O[C@@H]2[C@H](O1)[C@@H](COP(=O)(O)OP(=O)(O)OP(=O)(O)O)O[C@H]2n1cnc2c(N)ncnc21 [2',3'-Isopropylidene-ATP, 2',3'-Isopropylidene adenosine 5'-triphosphate]
- activity/potency in words, bladder [5]: limited activity in the urinary bladder
- activation at 10 µM ([6]; 10 μM, read-out: response at 10 μM relative to the contraction produced by 1 μM α,MeATP, saph. artery): 7.7%
- overall activity in words, all preparations [2]: Neither was particularly active at either P2X or P2Y receptors
- activity/potency in words, vas deferens [7]: inactive in the vas deferens
- EC50 [3, 11]: 201000 nM
- activity/potency/selectivity in words, aorta [4]: high selectivity

SMILES: Nc1ncnc2c1ncn2[C@H]1C[C@H](O)[C@@H](COP(=O)(O)OP(=O)(O)OP(=O)(O)O)O1 [2'-Deoxy-ATP, 2'-deoxy-ATP, reference compound]
- overall activity in words, P2X systems [1]: inactive in the P2X receptor systems
- activity/potency in words, taenia coli ([8]; guinea pig taenia coli): roughly equipotent with ATP in the taenia coli
- activity/potency in words, taenia coli ([8]; guinea pig taenia coli, listed as 2'-deoxy-ATP): selectivity
- EC50 ([8]; guinea pig taenia coli, log molar units, read-out: relaxation pD2, taenia coli (converted)): 2.51 µM
- overall activity in words, all preparations [2]: inactive in the five other preparations
- fold less potent than ATP, turkey erythrocyte ([3]; relative to ATP): 7 -fold
- activity/potency in words, turkey erythrocyte ([3]; turkey erythrocyte membranes): seven times less potent than ATP in the turkey erythrocyte
- EC50 [3, 11]: 19200 nM

SMILES: Nc1ncnc2c1ncn2[C@@H]1O[C@@H]2COP(=O)(OP(=O)(O)CP(=O)(O)O)O[C@H]2[C@H]1O (stereo partly drawn) [3',5'-Cyclic-β,γ-methylene adenosine 5'-triphosphate]
- overall activity in words, all preparations ([2]; listed as Cyclized β,γ-methylene ATP): without effect in all seven types of preparation tested
- overall activity in words, all preparations ([2]; listed as β,γ-methylene-adenosine-3',5'-cyclic triphosphate): greatly reduce or abolish activity within most P2X and P2Y preparations
- EC50 ([3]; at 10^-5 M, read-out: phosphatidyl inositol metabolism (K0.5) erythrocyte, class symbol): > 10000 nM

SMILES: Nc1ncnc2c1ncn2[C@@H]1O[C@H](COP(=O)(O)OP(=O)(O)OP(=O)(O)O)[C@@H](N)[C@H]1O [3'-Amino-3'deoxy-ATP, 3'-Amino-3'-deoxyadenosine 5'-triphosphate, reference compound]
- EC50 [8]: 3.98 µM
- activity/potency in words, taenia coli ([8]; guinea pig taenia coli): almost as potent as ATP in the taenia coli
- activity/potency in words, bladder [5]: more or less as potent as ATP
- activity/potency in words, saphenous artery [6]: inactive in the saphenous artery
- overall activity in words, all preparations [2]: generally enhanced potency at P2 receptors
- activity/potency in words, vas deferens [7]: more or less as potent as ATP
- times more potent than ATP, turkey erythrocyte ([3]; relative to ATP): approximately 15 times
- EC50 [3, 11]: 193 nM
- relaxation pD2, aorta [4]: 6.4

SMILES: Nc1ncnc2c1ncn2[C@@H]1O[C@H](COP(=O)(O)OP(=O)(O)OP(=O)(O)O)C[C@H]1O [3'-Deoxy-ATP, 3'-deoxy-ATP, reference compound]
- activity/potency in words, bladder [5]: as active as ATP, or nearly so; also recorded: less potent or equal to potency of ATP
- activity/potency in words, saphenous artery [6]: no effect
- overall activity in words, all preparations [2]: greatly reduce or abolish activity within most P2X and P2Y preparations
- activity/potency in words, vas deferens [7]: as active as ATP, or nearly so; also recorded: equivalent to the effect of ATP
- overall activity in words, P2Y systems [9]: less potent than 2'-deoxy-ATP at P2Y receptors
- EC50 [3, 11]: 75500 nM

SMILES: NCCCCCCNc1nc2c(N)ncnc2n1[C@@H]1O[C@H](COP(=O)(O)OP(=O)(O)OP(=O)(O)O)[C@@H](O)[C@H]1O [8-(6-Aminohexylamino)-ATP, 8-(6-aminohexylamino)-ATP, reference compound]
- overall activity in words, P2X systems [1]: inactive in the P2X receptor systems
- overall activity in words, P2Y systems [9]: specific for P2Y receptors
- activity/potency in words, turkey erythrocyte ([3]; turkey erythrocyte membranes, listed as 8-(6-Aminohexylamino)ATP): somewhat active in turkey erythrocytes
- activity/potency in words, turkey erythrocyte ([3]; turkey erythrocyte membranes, listed as 8-(6-amino-hexylamino)ATP): less potent than ATP at the turkey erythrocyte P2Y receptor
- EC50 [3, 11]: 8200 ± 1200 nM
- activity/potency/selectivity in words, aorta ([4]; listed as 8-(6-Aminohexylamino)ATP): selective for the endothelial receptors of the rabbit aorta versus the mesenteric artery and taenia coli
- activity/potency/selectivity in words, aorta ([4]; listed as 8-(6-amino-hexylamino)ATP): much more potent than ATP
- activity/potency/selectivity in words, aorta ([4]; listed as 8-(6-aminohexylamino)ATP): high selectivity
- relaxation pD2, aorta [4]: 7.3
- activity/potency in words, mesenteric artery [10]: no activity at the mesenteric artery P2Y receptor

SMILES: O=P(O)(O)OP(=O)(O)OP(=O)(O)OC[C@H]1O[C@@H](n2cnc3c2ncn2ccnc32)[C@H](O)[C@@H]1O [N1,N^6 -etheno-ATP, reference compound]
- activity/potency in words, bladder [5]: limited activity in the urinary bladder
- overall activity in words, all preparations [2]: greatly reduce or abolish activity within most P2X and P2Y preparations
- activity/potency in words, vas deferens [7]: inactive in the vas deferens
- EC50 [3, 11]: > 100000 nM
